Read-outs that look alike come from different tables or passages of the source. Each block holds one molecule with its values, some of them ahead of it.
Columns and labels:
[1] = test system: β-glucosidase from Thermotoga sp; settings: Ruthersmith and Daniel (1993), cited from earlier work
[2] = test system: native β-glucosidase of Orpinomyces PC-2; settings: Chen et al. (1994), cited from earlier work
[3] = test system: β-glucosidase from Aspergillus nidulans; settings: Kwon et al. (1992), cited from earlier work
[4] = test system: β-glucosidase from Aureobasidium pullulans; settings: Saha et al. (1995), cited from earlier work
[5] = test system: β-glucosidase from Clostridium thermocellum; settings: Katayeva et al. (1992); read-out: Cellobiose affinity (Km); cited from earlier work
[6] = biological target: β-glucosidase from Aspergillus niger (Aspergillus niger, UniProt A2RAL4); settings: read-out: Cellobiose affinity (Km); Hoh et al. (1992); cited from earlier work
Chain of β-glucosidase from Aspergillus niger (A2RAL4 20-860): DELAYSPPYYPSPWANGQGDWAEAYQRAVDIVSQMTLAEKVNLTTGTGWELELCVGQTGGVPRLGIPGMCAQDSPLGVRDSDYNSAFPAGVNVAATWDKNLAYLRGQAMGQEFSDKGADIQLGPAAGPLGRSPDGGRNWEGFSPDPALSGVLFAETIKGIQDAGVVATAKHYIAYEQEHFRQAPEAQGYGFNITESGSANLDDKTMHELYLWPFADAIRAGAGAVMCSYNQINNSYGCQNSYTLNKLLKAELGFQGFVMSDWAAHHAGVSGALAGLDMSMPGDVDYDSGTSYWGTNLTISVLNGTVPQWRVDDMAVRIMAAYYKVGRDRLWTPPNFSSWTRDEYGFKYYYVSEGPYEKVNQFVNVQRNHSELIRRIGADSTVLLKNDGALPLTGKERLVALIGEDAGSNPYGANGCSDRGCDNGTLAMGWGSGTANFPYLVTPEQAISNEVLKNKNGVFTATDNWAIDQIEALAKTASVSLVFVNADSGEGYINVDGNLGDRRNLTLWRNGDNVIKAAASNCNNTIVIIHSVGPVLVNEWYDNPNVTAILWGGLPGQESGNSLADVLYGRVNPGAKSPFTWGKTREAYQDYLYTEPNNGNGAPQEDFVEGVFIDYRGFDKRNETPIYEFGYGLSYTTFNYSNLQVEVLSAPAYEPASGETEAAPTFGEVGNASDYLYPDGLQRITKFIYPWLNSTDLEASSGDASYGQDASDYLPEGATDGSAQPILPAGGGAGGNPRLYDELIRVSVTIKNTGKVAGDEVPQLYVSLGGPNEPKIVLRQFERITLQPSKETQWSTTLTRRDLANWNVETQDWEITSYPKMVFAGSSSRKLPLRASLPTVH

[7] = test system: β-glucosidase from Sporotrichum thermophile; settings: Bhat et al. (1993), cited from earlier work
[8] = test system: β-glucosidase from T. reesei; settings: Chen et al. (1992), cited from earlier work
[9] = biological target: T1, Orpinomyces sp. strain PC-2 β-glucosidase BglA, recombinant, secreted from S. cerevisiae, SEQ ID NO:2 (Orpinomyces sp. PC-2, UniProt Q9UUQ3); experiment: Kinetic parameters of purified secreted recombinant BglA (Lineweaver-Burk plots); format: biochemical
T1 sequence (Q9UUQ3 17-657): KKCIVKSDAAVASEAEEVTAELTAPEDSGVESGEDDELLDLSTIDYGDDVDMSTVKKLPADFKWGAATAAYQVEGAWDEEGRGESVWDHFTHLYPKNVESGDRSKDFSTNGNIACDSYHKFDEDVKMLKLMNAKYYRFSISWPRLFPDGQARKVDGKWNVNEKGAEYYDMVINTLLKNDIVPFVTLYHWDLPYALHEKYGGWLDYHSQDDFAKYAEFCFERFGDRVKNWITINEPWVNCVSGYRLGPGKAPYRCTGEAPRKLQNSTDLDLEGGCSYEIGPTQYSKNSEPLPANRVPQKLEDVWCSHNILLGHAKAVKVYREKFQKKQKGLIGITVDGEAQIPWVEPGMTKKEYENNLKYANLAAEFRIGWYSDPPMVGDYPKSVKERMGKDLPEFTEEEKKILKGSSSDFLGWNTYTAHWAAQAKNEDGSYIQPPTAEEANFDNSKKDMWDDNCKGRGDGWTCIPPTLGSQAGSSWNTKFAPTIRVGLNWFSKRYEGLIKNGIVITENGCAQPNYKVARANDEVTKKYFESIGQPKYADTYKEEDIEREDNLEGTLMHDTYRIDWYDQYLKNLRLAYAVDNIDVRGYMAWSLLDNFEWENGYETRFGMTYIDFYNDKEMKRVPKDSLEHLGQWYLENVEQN
Protocol: (§1) β-Glucosidase (.rho.-nitrophenyl-β-D-glucosidase [.rho.NPGase]) and cellobiase activities were determined by the following standard procedures. With .rho.-nitrophenyl-β-D-glucoside (.rho.NPG) as the substrate, the reaction mixture of 1.2 ml contained 0.3 ml of appropriately diluted enzyme solution, 0.6 ml of 50 mM sodium phosphate buffer, pH 6.0, and 0.3 ml of 12 mM .rho.NPG. The reaction was carried out for 10 min at 40° C. and stopped by the addition of 2.4 ml of 1M Na2 CO3. The liberated .rho.-nitrophenol was measured spectrophotometrically at 405 nm [Herr et al. (1978) Appl. Microbiol. Biotechnol. 5:29-36; Chen et al. (1992) Biochem. Biophys. Acta. 1121:54-60]. Cellobiase activity was determined by using a reaction mixture of 2 ml containing 1 ml of appropriately diluted enzyme solution in 50 mM sodium phosphate buffer, pH 6.0, and 1 ml of 2 mM cellobiose. The reaction was carried out at 40° C. for 30 min and was stopped by placing the assay tubes in boiling water for 5 min. Liberated glucose was measured with a glucose determination kit (Sigma Chemical Co., St. Louis, Mo.) according to the manufacturer's instructions. One unit of β-glucosidase or cellobiase activity is defined as the amount of enzyme required to hydrolyze 1 μmole of substrate per min. Specific activity is expressed as unit per milligram of protein. […]

[10] = substrate: OC[C@H]1O[C@@H](O[C@H]2[C@H](O)[C@@H](O)C(O)O[C@@H]2CO)[C@H](O)[C@@H](O)[C@@H]1O; experiment: as above; format: biochemical, Orpinomyces sp. strain PC-2; settings: other: 40° C. and pH 6.0
Protocol: as §1

[11] = substrate: O=[N+]([O-])c1ccc(O[C@@H]2O[C@H](CO)[C@@H](O)[C@H](O)[C@H]2O)cc1; experiment: as above; format: biochemical, Orpinomyces sp. strain PC-2; settings: other: 40° C. and pH 6.0
Protocol: as §1

[12] = read-out: Cellobiose affinity (Km)
[13] = read-out: Glucose inhibition (Ki)

Molecule: OC[C@H]1O[C@@H](O[C@H]2[C@H](O)[C@@H](O)C(O)O[C@@H]2CO)[C@H](O)[C@@H](O)[C@@H]1O (stereo partly drawn) [Cellobiose, cellobiose (β-1,4-glucobiose)]
Km [1, 12]: 19000 µM | Km [2, 12]: 250 µM | Km [3, 12]: 1000 µM | Km [4, 12]: 5650 µM | Km [5]: 77000 µM | Km [6]: 890 µM | Km [7, 12]: 830 µM | Km [8, 12]: 2100 µM

Molecule: OC[C@H]1OC(O)[C@H](O)[C@@H](O)[C@@H]1O (stereo partly shown) [Glucose]
Ki [1, 13]: 420 µM | Ki [2, 13]: 8750 µM | Ki [9]: 3600 µM | Ki [3, 13]: 5480 µM | Ki [4, 13]: 1000 µM | Ki [7, 13]: 500 µM | Ki [8, 13]: 620 µM

Ki ([9]; competitive inhibition, pNPG and cellobiose as substrates, read-out: Ki of glucono-1,5-lactone): 50 µM
Molecule: O=C1O[C@H](CO)[C@@H](O)[C@H](O)[C@H]1O [glucono-1,5-lactone, reference compound]

Molecule: O=[N+]([O-])c1ccc(O[C@@H]2O[C@H](CO)[C@@H](O)[C@H](O)[C@H]2O)cc1 [pNPG, .rho.-nitrophenyl-β-D-glucoside, reference compound]
Km ([2]; read-out: Km (pNPG as substrate)): 350 µM

B1: Orpinomyces sp. strain PC-2 β-glucosidase BglA, recombinant, secreted from S. cerevisiae, SEQ ID NO:2 (Orpinomyces sp. PC-2) (protein)
chain: KKCIVKSDAAVASEAEEVTAELTAPEDSGVESGEDDELLDLSTIDYGDDVDMSTVKKLPADFKWGAATAAYQVEGAWDEEGRGESVWDHFTHLYPKNVESGDRSKDFSTNGNIACDSYHKFDEDVKMLKLMNAKYYRFSISWPRLFPDGQARKVDGKWNVNEKGAEYYDMVINTLLKNDIVPFVTLYHWDLPYALHEKYGGWLDYHSQDDFAKYAEFCFERFGDRVKNWITINEPWVNCVSGYRLGPGKAPYRCTGEAPRKLQNSTDLDLEGGCSYEIGPTQYSKNSEPLPANRVPQKLEDVWCSHNILLGHAKAVKVYREKFQKKQKGLIGITVDGEAQIPWVEPGMTKKEYENNLKYANLAAEFRIGWYSDPPMVGDYPKSVKERMGKDLPEFTEEEKKILKGSSSDFLGWNTYTAHWAAQAKNEDGSYIQPPTAEEANFDNSKKDMWDDNCKGRGDGWTCIPPTLGSQAGSSWNTKFAPTIRVGLNWFSKRYEGLIKNGIVITENGCAQPNYKVARANDEVTKKYFESIGQPKYADTYKEEDIEREDNLEGTLMHDTYRIDWYDQYLKNLRLAYAVDNIDVRGYMAWSLLDNFEWENGYETRFGMTYIDFYNDKEMKRVPKDSLEHLGQWYLENVEQN
Km [10]: 310 µM | Km [11]: 762 µM

Source: US6184018A, “β-glucosidase coding sequences and protein from orpinomyces PC-2” (University of Georgia Research Foundation, Inc., priority 1999, dated 2001)
